Results on 6 compounds are retold here after patent EP4813381A1, “PHARMACEUTICAL USE OF GUAIANE SESQUITERPENE DERIVATIVE” (Nanjing University Of Chinese Medicine, priority 2023, dated 2025).

≈ marks a conversion by molar mass, not a printed value.

One data set deals with 4T1 cells. Type of data set: in vivo, BALB/c mice. Conditions: 4T1, oral 40 µmol/kg/day, 3 weeks. How it is done: 4T1 cells were cultured and expanded in vitro. […] A 100 µL aliquot of this suspension was injected subcutaneously into the left forelimb axilla of female BALB/c mice. […] Daily oral administration was performed for 3 weeks. During the treatment period, mouse body weight and tumor diameter were measured daily. At the end of the experiment, mice were euthanized by cervical dislocation, and tumors were removed for weighing. Tumor volume (TV) was calculated using the formula: TV = 1/2 × a × b^2, where a represents the longest diameter of the tumor and b represents the shortest diameter.

The nature of data set [1]: Conversion rate of salt-form prodrugs to parent compound in mouse plasma. In kind it is in vitro ADME. Conditions: conversion to Compound 83, mouse plasma, 37 °C.
Data set [2] is described as follows: Conversion rate of salt-form prodrugs to parent compound in HEPES buffer solution. The settings on record: conversion to Compound 83, HEPES buffer pH 7.4, 37 °C. Type of data set: physicochemical. Put shortly:
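Salt-form prodrug dissolved in water was mixed 1:1 with HEPES buffer pH 7.4 (or mouse serum) and incubated at 37°C. Aliquots were quenched with methanol and centrifuged, and supernatants taken at 1, 2, 4, 8 and 12 h were analysed by HPLC. Conversion was followed by peak areas.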

Data set [3] concerns CCl4-induced liver injury. The data set is described as follows: CCl4 acute liver injury model in mice: serum ALT and AST. The settings on record: 200 mg/kg (method: U/L). In kind it is in vivo, C57BL/6 mice. An excerpt:
The drug of the present invention, prepared according to Example 2; Silybin, Shanghai Yuanye Biotechnology Co., Ltd.; Olive oil, Beijing […] Olive Oil Development Center; Analytical grade carbon tetrachloride (CCl4), Shantou Xilong Chemical Factory; Sodium carboxymethyl cellulose (CMC-Na), Guangdong Shantou Xilong Chemical Factory; RNA Isolater Total RNA Extraction Reagent, […] RT Supermix for qPCR, Nanjing Vazyme Biotech Co., Ltd.; AceQ qPCR SYBR Green Master Mix, Shanghai Yeasen Biotechnology Co., Ltd.; Aspartate Transaminase (AST/GOT) Colorimetric Test Kit, Alanine Transaminase (ALT/GPT) Colorimetric Test Kit, Wuhan Elabscience Biotechnology Co., Ltd. • Experimental animals: […] SCXK(Su)2019-002. […] They were acclimated for 7 days before use in experiments. • Experimental Methods: Establishment of Acute Liver Injury Model in Mice and Group-Specific Drug Administration • Mice were randomly assigned to groups. […] One hour after the final drug administration, blood was collected from the retinal venous plexus. […] Serum was aspirated, aliquoted, and stored at -70 °C for future use. After blood collection, euthanize mice by cervical dislocation. Perform laparotomy to remove the liver. Rinse twice with pre-chilled PBS. Excise the left hepatic lobe tissue. […] Store remaining tissue at -70 °C for future use. • Serum AST and ALT Assay: Use 10 μL of each sample for testing. Determine mouse serum AST and ALT levels according to the operating manual. Measure absorbance at 510 nm using an enzyme-linked immunosorbent assay (ELISA) reader. Calculate sample concentration (U/L) based on the standard curve. Data Statistics: All data are expressed as means ± standard error of the mean (S.E.M.). Differences were analyzed for significance using analysis of variance (ANOVA). For groups showing significant differences in ANOVA, one-way ANOVA followed by Dunnett's test was performed to compare intergroup differences.

For data set [4], the system named is fibrosis-related factors (Acta2, Col1a1, Tgfb1). The data set can be described thus: CCl4 acute liver injury model in mice: Q-PCR of fibrosis-related factors in liver. In kind it is in vivo, C57BL/6 mice. Conditions: liver mRNA, 200 mg/kg. As to the method:
They were acclimated for 7 days before use in experiments. • Experimental Methods: Establishment of Acute Liver Injury Model in Mice and Group-Specific Drug Administration • Mice were randomly assigned to groups. One group was arbitrarily designated as the normal group, while the remaining groups served as model group, Compound 1 group, Hydrochloride 20 group, Fumarate 21 group, and Silibinin group, with 6 mice per group. Except for the normal group receiving 10 mL olive oil/kg via injection, all other mice received 0.5 mL CCl4 + 9.5 mL olive oil/kg body weight via intraperitoneal injection, maintaining a CCl4 to olive oil ratio of 1:19. Starting from day 1 of modeling, Compound 1, Hydrochloride 20, and Fumarate 21 were administered orally for 3 consecutive days. […] The blood was allowed to stand at room temperature for 2 hours, then centrifuged at 3000 rpm for 20 minutes. Serum was aspirated, aliquoted, and stored at -70 °C for future use. After blood collection, euthanize mice by cervical dislocation. Perform laparotomy to remove the liver. Rinse twice with pre-chilled PBS. Excise the left hepatic lobe tissue. […] Store remaining tissue at -70 °C for future use. • Serum AST and ALT Assay: Use 10 µL of each sample for testing. Determine mouse serum AST and ALT levels according to the operating manual. Measure absorbance at 510 nm using an enzyme-linked immunosorbent assay (ELISA) reader. Calculate sample concentration (U/L) based on the standard curve.
Q-PCR Analysis: Tissue total RNA extraction, cDNA synthesis, and PCR amplification methods are identical to Example 4. Additional primer information is as follows:
Data Statistics: All data are expressed as means ± standard error of the mean (S.E.M.). Differences were analyzed for significance using analysis of variance (ANOVA). For groups showing significant differences in ANOVA, one-way ANOVA followed by Dunnett's test was performed to compare intergroup differences.

A further data set concerns CCR2 mRNA. The data set is described as follows: CCR2 mRNA level in MDSCs (PCR). In kind it is cell-based, mice. The settings on record: CCR2 mRNA levels in MDSCs, 2 h. As to the method:
Mice were euthanized by cervical dislocation and immersed in 75% ethanol solution for 5 min. Under sterile conditions, the tibia was removed, both ends of the bone were cut, and bone marrow was repeatedly flushed into a 15 mL centrifuge tube using a 1 mL syringe filled with culture medium. Centrifuge at 1600 rpm for 5 min to collect bone marrow cells. Wash twice with 1×PBS, then resuspend in RPMI 1640 complete medium containing GM-CSF (10 ng/mL) + IL-4 (10 ng/mL) and transfer to a cell culture dish to stimulate differentiation of bone marrow cells into MDSCs. Count cells and adjust density to 1 × 10^6 cells/mL in complete medium. Seed cells uniformly into 6-well plates at 2 mL per well. […] After incubation, collect cells into centrifuge tubes, centrifuge at 1600 rpm for 5 min, wash once with 1×PBS, and add 500 µL RNA extraction reagent to each tube. After centrifugation to obtain the pellet, add 20 µL DEPC-treated water to each tube to dissolve the pellet. Determine RNA concentration and reverse transcribe to cDNA. Add the cDNA, primers, and reverse transcriptase to a 96-well plate. Centrifuge at 4000 rpm for 5 min, then place in a PCR instrument for detection.

In the next data set the test system is MDSCs. The data set is described as follows: Inhibition of MDSC chemotaxis (Transwell, Hepa1-6 tumor-conditioned medium). Type of data set: cell-based, mice. The settings on record: 12 h treatment, 24 h Transwell. How it is done:
Hepa1-6 mouse hepatocellular carcinoma cells were uniformly seeded into 6-well plates. After cells reached confluence, supernatant was aspirated, and 1-1.5 mL fresh medium was added to each well. Following 24 h culture, supernatant was collected, centrifuged at 1600 rpm for 5 min, aspirated, and filtered through a 0.22 µm membrane to obtain tumor-conditioned medium for subsequent use. Euthanize mice by cervical dislocation and immerse in 75% ethanol solution for 5 min. Under sterile conditions, remove the tibia, cut both ends of the bone, and aspirate the bone marrow into a 1 mL syringe. Repeat flushing into a 15 mL centrifuge tube. Centrifuge at 1600 rpm for 5 min to collect bone marrow cells. Wash twice with 1×PBS. Resuspend cells in complete RPMI 1640 medium containing cytokines GM-CSF (10 ng/mL) and IL-4 (10 ng/mL) to stimulate differentiation into MDSCs. Count cells, adjust density to 1×10^6 cells/mL, and uniformly seed into 24-well plates at 300 µL per well. […] Centrifuge at 1600 rpm for 5 min, remove supernatant, resuspend cells in 300 µL fresh medium, and place into Transwell chambers. Add 600 µL normal medium (control group) or tumor-conditioned medium (model group) to the lower chamber. Co-culture for 24 h.

In the next data set the test system is lupus nephritis. The data set is described as follows: Lupus nephritis MRL/lpr mice: urinary protein, Scr, BUN, urinary Kim-1 and β-MG. Type of data set: in vivo. Details: Scr / BUN / Kim-1 / β-MG: unit not given here. The settings on record: oral 30 mg/kg, 8 weeks. How it is done:
RT Supermix for qPCR, Nanjing Vazyme Biotech Co., Ltd.; Urea Colorimetric Test Kit, Creatinine Colorimetric Test Kit, Nanjing Jiancheng Biotechnology Co., Ltd.; Urinary Kim-1 and β-MG Content ELISA Kits, Abcam. • Experimental animals: MRL/MpJ and MRL/lpr mice, female, 10 weeks old, purchased from GemPharmatech LLC. Production license number: SCXK(Su)2023-0009. […] They were acclimated for 7 days before use in experiments. […] Oral administration was performed continuously for 8 weeks. […] Aspirate the serum, aliquot it, and store at -70 °C for future use. After blood collection, euthanize mice by cervical dislocation. Open the abdominal cavity, remove kidneys, and dissect out perirenal fat and capsules. […] Store remaining tissues at -70 °C for future use. Serum Creatinine (Scr) and Blood Urea Nitrogen (BUN) Assay: […] Samples were added sequentially strictly according to the kit instructions, incubated at 37 °C, and measured for absorbance values using an enzyme-linked immunosorbent assay (ELISA) reader. The concentration levels of each indicator were calculated based on the standard curve.

Data set [5] relates to inflammatory factors (TNF, IL-6, IL-1). The data set is described as follows: Lupus nephritis MRL/lpr mice: Q-PCR of renal inflammatory factors. Type of data set: in vivo. Conditions: kidney mRNA, oral 30 mg/kg, 8 weeks. How it is done: Production license number: SCXK(Su)2023-0009. […] They were acclimated for 7 days before use in experiments.
Oral administration was performed continuously for 8 weeks.
Allow blood to stand at room temperature for 2 hours, then centrifuge at 3000 rpm for 20 minutes. Aspirate the serum, aliquot it, and store at -70 °C for future use. After blood collection, euthanize mice by cervical dislocation. Open the abdominal cavity, remove kidneys, and dissect out perirenal fat and capsules. […] Store remaining tissues at -70 °C for future use.
Additional primer information is as follows: Table 19. Q-PCR Primer Information

The next data set in a line: physchem. Conditions: water, 37 °C, thermodynamic from solid.

Consider `CC1=C2CC[C@@](C)(OC(=O)N3CCCCC3)[C@@H]2[C@H]2OC(=O)[C@@H](CN(C)C)[C@@H]2CC1` [compound 102], for which the antitumor effects entry in the data set with 4T1 cells is “no significant antitumor effects”. Further, the Release rate in [1] (1 h) came to 6.6%; in data set [1] (2 h) it was 14.0%; in data set [1] (4 h) it was 26.0%; in [1] (8 h) it was 42.4%; in data set [1] (12 h) it was 47.8%; in [2] (1 h), 6.8%. Further, the Release rate was found to be 14.6% in data set [2] (2 h), 24.8% in data set [2] (4 h), 43.0% in data set [2] (8 h) and 51.8% in data set [2] (12 h).
`COc1cc(C2Oc3cc([C@H]4Oc5cc(O)cc(O)c5C(=O)[C@@H]4O)ccc3OC2CO)ccc1O` (stereo partly shown) [Silybin, reference compound]: in [3], the ALT came to 121.58±15.45 and the AST worked out at 301.45±38.44. Moreover, in [4], the Acta2 turned out to be 2.91±0.48, the Col1a1 is reported as 1.84±0.17 and the Tgfb1 is 1.11±0.08.
On to `C=C1C(=O)O[C@H]2[C@H]1CCC(C)=C1CC[C@@](C)(OC(=O)NCCN3CCOCC3)[C@@H]12` [compound 78], for which the “CCR2 mRNA suppression rate in MDSCs (%)” value is on record as 23.0% in the data set with CCR2 mRNA (1 µM) and 52.7% in the data set with CCR2 mRNA (10 µM). The “Suppression Rate (%)” value with MDSCs (1 µM) amounted to 29.0%; in the data set with MDSCs (10 µM), 67.1%.
On to `CC(C)(O)c1coc(S(=O)(=O)NC(=O)Nc2c3c(cc4c2CCC4)CCC3)c1` [MCC950, reference compound], for which the “24-hour urine protein level” value in the data set with lupus nephritis is given as 0.89±0.11. Moreover, in the data set with lupus nephritis (serum), the BUN worked out at 12.08±2.01 and the Scr was found to be 22.18±3.41. In the data set on lupus nephritis (urine), this compound yielded a Kim-1 of 0.53±0.06 and a β-MG of 15.41±0.39. In data set [5], this compound registered an Il1 of 5.43±0.71, an Il6 of 9.52±0.84 and a Tnf of 4.33±0.52.
Consider `C=C1C(=O)O[C@H]2[C@H]1CCC(C)=C1CC[C@@](C)(OC(=O)N3CCCCC3)[C@@H]12` [compound 83], for which the entries for the “CCR2 mRNA suppression rate in MDSCs (%)” value with CCR2 mRNA (1 µM) and in the data set on CCR2 mRNA (10 µM) were 17.0% and 70.0%, respectively. Also, the concentration in solution in the data set “physchem” (solubility) came to 152 µg/mL (≈ 423 µM). The “Suppression Rate (%)” value came out at 29.4% in the data set with MDSCs (1 µM) and 75.9% in the data set with MDSCs (10 µM).
Consider `C=C1C(=O)O[C@H]2[C@H]1CCC(C)=C1CC[C@@](C)(OC(=O)NCCN3CCOCC3)[C@@H]12` [compound 99], for which the antitumor effects result with 4T1 cells is on record as “no significant antitumor effects”.
